Data: patent publication US20260001849A1, “NOVEL B0AT1 INHIBITOR” (MITSUBISHI TANABE PHARMA CORPORATION, priority 2023, published 2026)
Like-named read-outs stand apart in the source and are kept apart here.

Assays:
[1] = biological target: T1, Human BOAT1 (Homo sapiens, UniProt Q695T7); assay: hBOAT1 inhibitory test (phenylalanine uptake); format: cell-based; conditions: Human BOAT1 stable expression CHO cells, phenylalanine 0.25 mM, read-out: hB0AT1 IC50
T1 construct: expressed in transfected cells
T1 sequence (Q695T7 1-634): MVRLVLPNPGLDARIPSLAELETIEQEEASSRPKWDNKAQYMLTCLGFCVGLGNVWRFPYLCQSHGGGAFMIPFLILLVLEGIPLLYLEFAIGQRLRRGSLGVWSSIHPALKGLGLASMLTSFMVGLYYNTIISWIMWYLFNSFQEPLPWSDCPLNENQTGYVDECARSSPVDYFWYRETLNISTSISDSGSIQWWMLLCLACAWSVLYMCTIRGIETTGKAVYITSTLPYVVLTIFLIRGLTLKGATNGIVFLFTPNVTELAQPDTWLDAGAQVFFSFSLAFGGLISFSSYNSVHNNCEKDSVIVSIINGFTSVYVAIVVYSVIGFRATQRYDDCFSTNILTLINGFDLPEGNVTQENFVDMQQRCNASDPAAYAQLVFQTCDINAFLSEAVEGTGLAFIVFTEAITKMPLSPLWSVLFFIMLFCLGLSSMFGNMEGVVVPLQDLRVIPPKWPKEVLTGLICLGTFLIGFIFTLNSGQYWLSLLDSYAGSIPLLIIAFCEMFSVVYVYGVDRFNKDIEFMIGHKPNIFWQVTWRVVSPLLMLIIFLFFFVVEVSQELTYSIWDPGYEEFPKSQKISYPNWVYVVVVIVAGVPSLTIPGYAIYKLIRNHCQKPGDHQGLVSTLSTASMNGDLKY
Protocol: A test compound dissolved in dimethyl sulfoxide (DMSO) was added to a 96 well plate for solid phase radioactivity measurement containing a scintillator at the bottom of the well (final concentration of DMSO 0.5%). DMSO alone as a control and DMSO containing N-(4-bromophenyl)-3,5-dichloro-2-hydroxybenzamide (final concentration […]) for the measurement of BOAT1 non-specific uptake were similarly added at 0.5 μL per well. Human BOAT1 stable expression CHO cells suspended in a buffer (buffer containing 96 mM sodium chloride, 2 mM potassium chloride, 1.8 mM calcium chloride, 1 mM magnesium chloride, 0.01% bovine serum albumin, and 10 mM 2-[4-(2-hydroxyethyl)-1-piperazinyl]ethanesulfonic acid) were added by 90 μL to 75000 cells/well. After standing at ordinary temperature for 30 min or longer, the cells were subjected to a phenylalanine uptake experiment. A buffer containing L-phenylalanine and [3,4,5-3H]-L-phenylalanine was added by 10 μL per well (final concentration of phenylalanine 0.25 mM), and the radioactivity of the plate bottom surface at ordinary temperature was measured with a scintillation counter over time, and the radioactivity value after 100 to 200 min was analyzed.

[2] = biological target: T2, hERG channel (Homo sapiens, UniProt Q12809); assay: hERG channel inhibitory activity, whole-cell patch clamp (auto-patch clamp system); format: cell-based
T2 construct: host or cells: CHO cells
Protocol: Evaluation of hERG (Human Ether-a-go-go Related Gene) Channel Inhibitory Activity
The hERG channel inhibitory activity of the compound of the present invention was measured using CHO cells (B′ SYS GmbH) forcibly expressing hERG channels involved in human rapidly active delayed rectifier potassium current (IKr) by the whole-cell patch clamp method using an auto-patch clamp system (SyncroPatch384PE).
Cell suspension, extracellular fluid, intracellular fluid, and measurement plate (NPC-384 plate) were placed in the auto-patch clamp system, and hERG current measurements were performed using the whole-cell patch clamp method. The voltage protocol was set to a holding potential of −80 mV, with a depolarizing pulse preceded by −90 mV (100 ms) and followed by −80 mV (100 ms).
The depolarizing pulse was […] (500 ms), and then the hERG peak current value obtained during the ramp phase was measured when the voltage was lowered to −80 mV over 100 ms. The protocol was applied at 5-second intervals for 5 minutes for each concentration.
SyncroPatch software (manufactured by Nanion) was used for data analysis. Four concentrations were applied incrementally for each test substance, and the average hERG Peak current value obtained from the last three stimuli of each applied concentration was used as the evaluation data. The IC50 value was calculated from the inhibition rate of the current at each concentration of each test substance relative to the pre-application value using Hill's equation (Hill equation) using the relevant software.
The same experiments were also performed using the example compounds described in WO 2023/145804 as comparative example compounds 1-4.

[3] = [3H]-L-phenylalanine uptake, radioactivity after 100 to 200 min
[4] = comparative example compounds of WO 2023/145804, read-out: hERG inhibition IC50

T2 sequence (Q12809 whole entry): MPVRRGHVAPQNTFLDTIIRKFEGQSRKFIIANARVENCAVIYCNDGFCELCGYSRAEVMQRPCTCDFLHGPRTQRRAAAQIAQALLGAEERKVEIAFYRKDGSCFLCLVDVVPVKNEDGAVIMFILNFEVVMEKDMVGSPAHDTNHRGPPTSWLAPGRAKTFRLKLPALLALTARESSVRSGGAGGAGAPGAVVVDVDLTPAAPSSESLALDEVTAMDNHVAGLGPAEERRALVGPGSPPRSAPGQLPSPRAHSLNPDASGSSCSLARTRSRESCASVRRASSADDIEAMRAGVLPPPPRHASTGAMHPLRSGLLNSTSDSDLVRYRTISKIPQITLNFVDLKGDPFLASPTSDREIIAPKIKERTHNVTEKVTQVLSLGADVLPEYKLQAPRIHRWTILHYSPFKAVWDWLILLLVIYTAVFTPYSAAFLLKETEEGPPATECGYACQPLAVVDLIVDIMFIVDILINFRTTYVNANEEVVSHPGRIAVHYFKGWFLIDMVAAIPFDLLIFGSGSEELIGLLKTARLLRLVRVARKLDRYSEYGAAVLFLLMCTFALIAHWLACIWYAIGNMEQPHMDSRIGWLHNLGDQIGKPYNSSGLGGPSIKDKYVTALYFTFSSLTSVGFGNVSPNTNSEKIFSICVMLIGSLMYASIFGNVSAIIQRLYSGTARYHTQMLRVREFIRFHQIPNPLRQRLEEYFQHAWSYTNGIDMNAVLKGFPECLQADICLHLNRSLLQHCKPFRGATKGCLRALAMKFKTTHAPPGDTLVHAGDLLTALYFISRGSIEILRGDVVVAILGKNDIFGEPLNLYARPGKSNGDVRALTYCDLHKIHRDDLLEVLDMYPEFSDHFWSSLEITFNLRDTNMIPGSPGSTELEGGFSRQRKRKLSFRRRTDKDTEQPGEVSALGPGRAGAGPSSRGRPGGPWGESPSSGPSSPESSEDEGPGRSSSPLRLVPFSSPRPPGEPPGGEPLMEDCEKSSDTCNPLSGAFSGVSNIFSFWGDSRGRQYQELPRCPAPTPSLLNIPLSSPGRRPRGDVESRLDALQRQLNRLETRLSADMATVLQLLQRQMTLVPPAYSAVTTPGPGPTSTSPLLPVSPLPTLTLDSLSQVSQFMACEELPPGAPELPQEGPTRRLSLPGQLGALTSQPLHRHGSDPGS

SMILES	IC50 [1, 3] [nM]	IC50 ([2]; read-out: hERG IC50) [µM]	IC50 ([1]; phenylalanine uptake) [nM]	IC50 [2, 4] [µM]
CC(C(=O)O)c1ccc2c(c1)CCN(C(=O)CNC(=O)/C=C/c1ccc(C(F)(F)F)cc1)C2 (racemic) [I-171]	91	> 30	–	–
O=C(/C=C/c1ccc(C(F)(F)F)cc1)NCC(=O)N1CCc2cc([C@@H]3C[C@H]3C(=O)O)ccc2C1 (racemic) [I-172, (1R*,2R*)-2-[2-[2-[[(E)-3-[4-(trifluoromethyl)phenyl]prop-2-enoylamino]acetyl]-3,4-dihydro-1H-isoquinolin-6-yl]cyclopropanoic acid]	155	> 30	–	–
O=C(O)CCCN1CCN(C(=O)CNC(=O)/C=C/c2ccc(C(F)(F)F)cc2F)C(c2cccc(Br)c2)C1 (racemic) [I-234, 4-[3-(3-bromophenyl)-4-[2-[[(E)-3-[2-fluoro-4-(trifluoromethyl)phenyl]prop-2-enoyl]amino]acetyl]piperazin-1-yl]butanoic acid]	50	> 30	–	–
O=C(O)CCCN1CCN(C(=O)CNC(=O)/C=C/c2ccc(C(F)(F)F)cc2F)C(c2ccc(Cl)cc2)C1 (racemic) [I-236, 4-[3-(4-chlorophenyl)-4-[2-[[(E)-3-[2-fluoro-4-(trifluoromethyl)phenyl]prop-2-enoyl]amino]acetyl]piperazin-1-yl]butanoic acid]	94	> 30	–	–
CC(C(=O)O)c1ccc2c(c1)CCN(C(=O)CNC(=O)/C=C/c1ccc(C(F)(F)F)cc1)C2 (single isomer, unassigned) [I-286, 2-[2-[2-[[(E)-3-[4-(trifluoromethyl)phenyl]prop-2-enoyl]amino]acetyl]-3,4-dihydro-1H-isoquinolin-6-yl]propanoic acid]	–	> 30	303	–
CC(C(=O)O)c1ccc2c(c1)CCN(C(=O)CNC(=O)/C=C/c1ccc(C(F)(F)F)cc1)C2 (single isomer, unassigned) [I-287, 2-[2-[2-[[(E)-3-[4-(trifluoromethyl)phenyl]prop-2-enoyl]amino]acetyl]-3,4-dihydro-1H-isoquinolin-6-yl]propanoic acid]	–	> 30	178	–
O=C(/C=C/c1ccc(C(F)(F)F)cc1)NCC(=O)N1CCc2cc([C@@H]3C[C@H]3C(=O)O)ccc2C1 (single isomer, unassigned) [I-288, (1R*,2R*)-2-[2-[2-[[(E)-3-[4-(trifluoromethyl)phenyl]prop-2-enoyl]amino]acetyl]-3,4-dihydro-1H-isoquinolin-6-yl]cyclopropane-1-carboxylic acid]	–	> 30	152	–
O=C(/C=C/c1ccc(C(F)(F)F)cc1)NCC(=O)N1CCc2cc([C@@H]3C[C@H]3C(=O)O)ccc2C1 (single isomer, unassigned) [I-289, (1R*,2R*)-2-[2-[2-[[(E)-3-[4-(trifluoromethyl)phenyl]prop-2-enoyl]amino]acetyl]-3,4-dihydro-1H-isoquinolin-6-yl]cyclopropane-1-carboxylic acid]	–	> 30	87	–
O=C(O)CCCN1CCN(C(=O)CNC(=O)/C=C/c2ccc(C(F)(F)F)cc2F)C(c2ccccc2)C1 (single isomer, unassigned) [I-290, 4-[4-[2-[[(E)-3-[2-fluoro-4-(trifluoromethyl)phenyl]prop-2-enoyl]amino]acetyl]-3-phenylpiperazin-1-yl]butanoic acid]	–	> 30	119	–
CN1CCN(C(=O)CNC(=O)/C=C/c2ccc(C(F)(F)F)cc2)C(c2ccccc2)C1 (centres unmarked) [Comparative Example compound 1, reference compound]	–	–	–	2.09
O=C(/C=C/c1ccc(C(F)(F)F)cc1)NCC(=O)N1CCNCC1 [Comparative Example compound 2, reference compound]	–	–	–	8.72
CN1CCN(C(=O)CNC(=O)/C=C/c2ccc(C(F)(F)F)cc2)CC1 [Comparative Example compound 3, reference compound]	–	–	–	3.63
O=C(/C=C/c1ccc(C(F)(F)F)cc1)NCC(=O)N1CCc2ncsc2C1 [Comparative Example compound 4, reference compound]	–	–	–	5.96
O=C(O)Cc1cc(Cl)c2c(c1)CCN(C(=O)CNC(=O)/C=C/c1ccc(C(F)(F)F)cc1F)C2 [I-141]	34	> 30	–	–
O=C(O)Cc1cc(F)c2c(c1)CCN(C(=O)CNC(=O)/C=C/c1ccc(C(F)(F)F)cc1)C2 [I-143]	151	> 30	–	–
O=C(O)Cc1cc(Cl)c2c(c1)CCN(C(=O)CNC(=O)/C=C/c1ccc(C(F)(F)F)cc1)C2 [I-145]	86	> 30	–	–
O=C(O)Cc1ccc2c(c1Cl)CCN(C(=O)CNC(=O)/C=C/c1ccc(C(F)(F)F)cc1)C2 [I-146]	67	29.9	–	–
N#Cc1cc(CC(=O)O)cc2c1CN(C(=O)CNC(=O)/C=C/c1ccc(C(F)(F)F)cc1F)CC2 [I-147]	100	> 30	–	–

SMILES	IC50 [1, 3] [nM]	IC50 ([2]; read-out: hERG IC50) [µM]	IC50 ([1]; phenylalanine uptake) [nM]	IC50 [2, 4] [µM]
N#Cc1cc(CC(=O)O)cc2c1CN(C(=O)CNC(=O)/C=C/c1ccc(C(F)(F)F)cc1)CC2 [I-148]	207	> 30	–	–
Cc1cc(CC(=O)O)cc2c1CN(C(=O)CNC(=O)/C=C/c1ccc(C(F)(F)F)cc1)CC2 [I-149]	132	> 30	–	–
N#Cc1c(CC(=O)O)ccc2c1CCN(C(=O)CNC(=O)/C=C/c1ccc(C(F)(F)F)cc1)C2 [I-150]	182	24.9	–	–
N#Cc1c(CC(=O)O)ccc2c1CCN(C(=O)CNC(=O)/C=C/c1ccc(C(F)(F)F)cc1F)C2 [I-151]	57	> 30	–	–
O=C(O)CCc1nn2c(c1Br)CN(C(=O)CNC(=O)/C=C/c1ccc(S(F)(F)(F)(F)F)cc1)CC2 [I-153]	146	> 30	–	–
N#Cc1cc(CC(=O)O)cc2c1CN(C(=O)CNC(=O)/C=C/c1ccc(I)cc1F)CC2 [I-157]	102	> 30	–	–
O=C(O)Cc1ccc2c(c1)CCN(C(=O)CNC(=O)/C=C/c1ccc(I)cc1F)C2 [I-158]	83	> 30	–	–
O=C(/C=C/c1ccc(C(F)(F)F)cc1)NCC(=O)N1CCc2cc(C3(C(=O)O)CC3)ccc2C1 [I-166]	–	> 30	–	–
COc1cc2c(cc1CC(=O)O)CCN(C(=O)CNC(=O)/C=C/c1ccc(C(F)(F)F)cc1)C2 [I-176]	–	> 30	–	–
O=C(O)Cc1cc2c(s1)CCN(C(=O)CNC(=O)/C=C/c1ccc(C(F)(F)F)cc1)C2 [I-178]	–	> 30	–	–
O=C(O)CCCN1CCN(C(=O)CNC(=O)/C=C/c2ccc(C(F)(F)F)cc2F)CC1C(F)(F)F (centres unmarked) [I-198]	–	> 30	–	–
C[C@@H]1CN(CCCC(=O)O)[C@@H](C)CN1C(=O)CNC(=O)/C=C/c1ccc(C(F)(F)F)cc1F [I-235]	–	> 30	–	–
C[C@H]1CN(C(=O)CNC(=O)/C=C/c2ccc(C(F)(F)F)cc2F)[C@@H](c2ccccc2)CN1CCCC(=O)O [I-252]	–	> 30	–	–
O=C(/C=C/c1ccc(C(F)(F)F)cc1F)NCC(=O)N1CCCC(c2ccccc2C(=O)O)C1 (centres unmarked) [I-253]	–	26.2	–	–
O=C(O)CCCN1CCN(C(=O)CNC(=O)/C=C/c2ccc(C(F)(F)F)cc2F)C(c2ccc(Cl)c(F)c2)C1 (centres unmarked) [I-267]	–	> 30	–	–
O=C(O)CCCN1CCN(C(=O)CNC(=O)/C=C/c2ccc(C(F)(F)F)cc2F)CC1C1CCCCC1 (centres unmarked) [I-271]	–	16.4	–	–
O=C(O)CCCN1CCN(C(=O)CNC(=O)/C=C/c2ccc(C(F)(F)F)cc2F)C(c2cccnc2)C1 (centres unmarked) [I-403]	–	–	1720	–
